According to patent US6686394B1, “Aryl-chloro-ethyl ureas” (Sovar, Societe en Commandite, priority 1999, dated 2004):

Legend:
[1] = system: B16-F0; assay: Cytotoxicity assay C50/G50, MTT or resazurin (Example 16); assay type: cell-based; settings: for IC50: Mus musculus, B16F0, day-3, read-out: G50 (concentration inhibiting cell growth by 50%); for C50 (concentration needed to kill 50% of the cellular population present at the beginning): day-3
Protocol: (§1) Cell culture. Tumor cell lines (B16-F0, Caco-2, DU-145, HT-29, MDA-MB-231 and other cell lines described so far in the patent application) were obtained from the American Type Culture Collection (ATCC HTB-26; Bethesda, Md.). Cells were grown in RPMI 1640 medium supplemented with 10% fetal bovine serum (Hyclone, Road Logan, Utah) and were cultured in a humidified atmosphere at 37° C. in 5% CO2.
(§2) Drugs: All drugs were dissolved in DMSO and the final concentration of DMSO in the culture medium was maintained at 0.5% (v/v).
(§3) Cytotoxiciy assays. At day-1, tumor cells in suspension in 100 μl were plated in microtiter plates (96 wells). On day-0, tumor cells were treated by addition of escalating concentrations of the drug (100 μl solution). On that day, the number of living cells was determined in wells that were untreated. This was performed in order to be able to evaluate the toxic concentration of the drug needed to kill 50% of the cellular population present at the beginning of the experiments. This value is represented by C50 in the table. At day-3, the number of living cells is determined using either MTT or resazurin assays. Growth inhibition activity of these compounds was expressed as the concentration of CAU inhibiting cell growth by 50% G50 in the following table
(§4) The MTT assay was as described above in Example 1. The Resazurin assay was performed as follows:
(§5) Aspirate the supernatant (cell suspension: centrifuge first)
(§6) Add 100 μL NaCl 0.9% (saline)
(§7) Add 50 μL RZ (resazurin 125 μg/ml/PBS: RPMI without FBS; 1:4) Incubate at 37° C.
(§8) Collect fluorescence data at different time.

[2] = system: DU-145; assay: as above; assay type: cell-based; settings: for IC50: Homo sapiens, day-3, read-out: G50 (concentration inhibiting cell growth by 50%); for C50 (concentration needed to kill 50% of the cellular population present at the beginning): day-3
Protocol: as §1, §2, §3, §4, §5, §6, §7, §8

[3] = system: Caco-2; assay: as above; assay type: cell-based; settings: for IC50: Homo sapiens, day-3, read-out: G50 (concentration inhibiting cell growth by 50%); for C50 (concentration needed to kill 50% of the cellular population present at the beginning): day-3
Protocol: as §1, §2, §3, §4, §5, §6, §7, §8

[4] = system: MDA-MB-231; assay: as above; assay type: cell-based, human; settings: for IC50: Homo sapiens, day-3, read-out: G50 (concentration inhibiting cell growth by 50%); for C50 (concentration needed to kill 50% of the cellular population present at the beginning): day-3
Protocol: as §1, §2, §3, §4, §5, §6, §7, §8

[5] = system: HT-29; assay: as above; assay type: cell-based, human; settings: for IC50: Homo sapiens, day-3, read-out: G50 (concentration inhibiting cell growth by 50%); for C50 (concentration needed to kill 50% of the cellular population present at the beginning): day-3
Protocol: as §1, §2, §3, §4, §5, §6, §7, §8

[6] = system: MDA-MB-231; assay: Cytotoxicity assay G50, MTT or resazurin (Example 29); assay type: cell-based; settings: Homo sapiens; cell line MDA-MB-231
Protocol: as §1, §2
as §3, with “The” for “This was performed in order to be able to evaluate the toxic concentration of the drug needed to kill 50% of the cellular population present at the beginning of the experiments. This value is represented by C50 in the table. At day-3, the”
as §4, §5, §6
(§9) Add 50 μL RZ (resazurin 125 μg/ml/PBS: RPMI without FBS; 1:4)
as §8

[7] = system: HT-29; assay: as above; assay type: cell-based; settings: Homo sapiens; cell line HT-29
Protocol: as §1, §2
as §3, with “The” for “This was performed in order to be able to evaluate the toxic concentration of the drug needed to kill 50% of the cellular population present at the beginning of the experiments. This value is represented by C50 in the table. At day-3, the”
as §4, §5, §6, §9, §8

[8] = system: B16-F0; assay: as above; assay type: cell-based; settings: Mus musculus, B16F0; cell line B16-F0
Protocol: as §1, §2
as §3, with “The” for “This was performed in order to be able to evaluate the toxic concentration of the drug needed to kill 50% of the cellular population present at the beginning of the experiments. This value is represented by C50 in the table. At day-3, the”
as §4, §5, §6, §9, §8

[9] = system: DU-145; assay: as above; assay type: cell-based; settings: Homo sapiens; cell line DU-145
Protocol: as §1, §2
as §3, with “The” for “This was performed in order to be able to evaluate the toxic concentration of the drug needed to kill 50% of the cellular population present at the beginning of the experiments. This value is represented by C50 in the table. At day-3, the”
as §4, §5, §6, §9, §8

[10] = system: Caco-2; assay: as above; assay type: cell-based; settings: Homo sapiens; cell line Caco-2
Protocol: as §1, §2
as §3, with “The” for “This was performed in order to be able to evaluate the toxic concentration of the drug needed to kill 50% of the cellular population present at the beginning of the experiments. This value is represented by C50 in the table. At day-3, the”
as §4, §5, §6, §9, §8

[11] = system: T24; assay: as above; assay type: cell-based; settings: Homo sapiens, T-24; cell line T24
Protocol: as §4, §5, §6, §9, §8

[12] = system: L1210; assay: as above; assay type: cell-based; settings: Mus musculus; cell line L1210
Protocol: as §4, §5, §6, §9, §8

[13] = system: MCF-7; assay: as above; assay type: cell-based; settings: Homo sapiens, MCF7; cell line MCF-7
Protocol: as §4, §5, §6, §9, §8

[14] = system: K562; assay: as above; assay type: cell-based; settings: Homo sapiens; cell line K562
Protocol: as §4, §5, §6, §9, §8

[15] = system: CHO; assay: as above; assay type: cell-based, Chinese Hamster; settings: Cricetulus griseus; cell line CHO
Protocol: as §4, §5, §6, §9, §8

SMILES | IC50 [1] [µM] | C50 (concentration needed to kill 50% of the cellular population present at the beginning) [1] [µM] | IC50 [2] [µM] | C50 (concentration needed to kill 50% of the cellular population present at the beginning) [2] [µM] | IC50 [3] [µM] | C50 (concentration needed to kill 50% of the cellular population present at the beginning) [3] [µM] | IC50 [4] [µM] | C50 (concentration needed to kill 50% of the cellular population present at the beginning) [4] [µM] | IC50 [5] [µM] | C50 (concentration needed to kill 50% of the cellular population present at the beginning) [5] [µM] | IC50 [6] [µM] | IC50 [7] [µM] | IC50 [8] [µM] | IC50 [9] [µM] | IC50 [10] [µM] | IC50 [11] [µM] | IC50 [12] [µM] | IC50 [13] [µM] | IC50 [14] [µM] | IC50 [15] [µM]
C[C@@H](CCl)NC(=O)Nc1ccc(C2CCCCC2)cc1 [Example 8] | 21.8 | 22.1 | 8.6 | 25.2 | 15.4 | 20.3 | 27.6 | 42.3 | 17.1 | 23.9 |  |  |  |  |  |  |  |  |  | 
COc1ccc(NC(=O)N[C@@H](C)CCl)cc1OC [Example 18] |  |  |  |  |  |  |  |  |  |  | > 100 | > 100 | > 100 | > 100 | > 100 | > 100 | > 100 | > 100 | > 100 | > 100
CC[C@H](CCl)NC(=O)Nc1ccc(OC)c(OC)c1 [Example 20] |  |  |  |  |  |  |  |  |  |  | > 100 | > 100 | > 100 | > 100 | > 100 | > 100 | > 100 | > 100 | > 100 | > 100
CCCCCCCc1ccc(NC(=O)N[C@H](CC)CCl)cc1 [Example 24] |  |  |  |  |  |  |  |  |  |  | 5.17 | 2.94 | 3.74 | 4.02 | 4.85 | 3.61 | 4.04 | 3.78 | 2.9 | 3.14
CCCCCCc1ccc(NC(=O)NC(CCl)CCC)cc1 (racemic) [Example 14] | 15.8 | 21.3 | 10.9 | 19.6 | 12.7 | 21.1 | 18.9 | 32.3 | 10.7 | 20.3 |  |  |  |  |  |  |  |  |  | 
CC[C@@H](CCl)NC(=O)Nc1ccc(C2CCCCC2)cc1 [Example 13] | 15.5 | 17.7 | 6.9 | 16.2 | 9.9 | 15.6 | 16.3 | 32.5 | 9.8 | 16.3 |  |  |  |  |  |  |  |  |  | 
CCCCCCc1ccc(NC(=O)N[C@@H](CC)CCl)cc1 [Example 11] | 14.1 | 18.3 | 4.6 | 15.8 | 7.5 | 10.9 | 15.1 | 30.1 | 13.1 | 20.8 |  |  |  |  |  |  |  |  |  | 
CCCCCCOc1ccc(NC(=O)N[C@H](C)CCl)cc1 [Example 26] |  |  |  |  |  |  |  |  |  |  | 10.5 | 9.55 | 6.38 | 13.2 | 8.57 | 7.14 | 6.21 | 8.3 | 2.68 | 2.63
C[C@H](CCl)NC(=O)Nc1ccc(C2CCCCC2)cc1 [Example 9] | 15.4 | 17.4 | 7.8 | 27.6 | 8.6 | 14.7 | 27.5 | 42.9 | 19 | 28.1 |  |  |  |  |  |  |  |  |  | 
CC[C@@H](CCl)NC(=O)Nc1ccc(OC)c(OC)c1 [Example 19] |  |  |  |  |  |  |  |  |  |  | > 100 | > 100 | > 100 | > 100 | > 100 | > 100 | > 100 | > 100 | > 100 | > 100
CCCCCCCc1ccc(NC(=O)N[C@@H](CC)CCl)cc1 [Example 23] |  |  |  |  |  |  |  |  |  |  | 6.12 | 5.01 | 4.77 | 4.89 | 6.32 | 3.93 | 5.67 | 4.2 | 3.59 | 4.2
CCCCCCOc1ccc(NC(=O)N[C@@H](C)CCl)cc1 [Example 27] |  |  |  |  |  |  |  |  |  |  | 9.08 | 10.5 | 8.45 | 12.6 | 7.98 | 9.93 | 8.2 | 7.99 | 7.48 | 3.66
CCCCCCc1ccc(NC(=O)N[C@H](CC)CCl)cc1 [Example 10] | 18.8 | 24.9 | 7.4 | 27.2 | 10.2 | 13.7 | 18 | 40.6 | 20.8 | 36.8 |  |  |  |  |  |  |  |  |  | 
CC[C@H](CCl)NC(=O)Nc1ccc(C2CCCCC2)cc1 [Example 12] | 17.3 | 21.5 | 7.3 | 22.2 | 10 | 17.7 | 19.6 | 40.3 | 13.6 | 22.8 |  |  |  |  |  |  |  |  |  | 
CCCCCCCc1ccc(NC(=O)N[C@@H](C)CCl)cc1 [Example 22] |  |  |  |  |  |  |  |  |  |  | 8.33 | 7.69 | 6.6 | 7.46 | 7.61 | 6.15 | 7.48 | 5.56 | 6.96 | 3.8
CCCCCCc1ccc(NC(=O)N[C@H](C)CCl)cc1 [Example 6] | 26.3 | 31.3 | 18.9 | 39.5 | 35.8 | 44.2 | 31.5 | 43.3 | 32.3 | 44.5 |  |  |  |  |  |  |  |  |  | 
CCCCCCc1ccc(NC(=O)N[C@@H](C)CCl)cc1 [Example 7] | 16.3 | 18.2 | 6.3 | 11.8 | 12.6 | 21.1 | 11.7 | 31.9 | 5.1 | 12.8 |  |  |  |  |  |  |  |  |  | 
